# Results reported in PubChem BioAssay (NCI).
# Several values for one entry are separate records, joined by “and”; a condition that tells them apart may be missing. Equal values may be shown once.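 In this assay, cells in 96-well plates receive the compound at five concentrations for 48 hours. Endpoints are linearly interpolated between the surrounding concentrations. Abbreviation: GI50, concentration required for 50% inhibition of growth. TGI: concentration producing complete growth inhibition.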
# What was measured:
# Assay in all cases: NCI tumour cell line growth inhibition, 48 h
# LXFL 529 NSCLC = tested on: LXFL 529 NSCLC
# SNB-78 CNS = tested on: SNB-78 CNS
# DMS 273 small cell lung = tested on: DMS 273 small cell lung
# HOP-18 NSCLC = tested on: HOP-18 NSCLC
# MOLT-4 leukemia = tested on: MOLT-4 leukemia
# M19-MEL melanoma = tested on: M19-MEL melanoma
# XF 498 CNS = tested on: XF 498 CNS
# TK-10 renal = tested on: TK-10 renal
# HOP-92 NSCLC = tested on: HOP-92 NSCLC
# OVCAR-8 ovarian = tested on: OVCAR-8 ovarian
# DMS 114 small cell lung = tested on: DMS 114 small cell lung
# CAKI-1 renal = tested on: CAKI-1 renal
# HS 578T breast = tested on: HS 578T breast
# DLD-1 colon = tested on: DLD-1 colon
SMILES,TGI (LXFL 529 NSCLC),TGI (SNB-78 CNS),TGI (DMS 273 small cell lung) [µM],TGI (HOP-18 NSCLC),TGI (MOLT-4 leukemia),TGI (M19-MEL melanoma),TGI (XF 498 CNS),TGI (TK-10 renal),TGI (HOP-92 NSCLC),TGI (OVCAR-8 ovarian),TGI (DMS 114 small cell lung),GI50 (MOLT-4 leukemia),GI50 (CAKI-1 renal),TGI (CAKI-1 renal),GI50 (M19-MEL melanoma),GI50 (TK-10 renal),GI50 (HOP-92 NSCLC),TGI (HS 578T breast) [µM],GI50 (DMS 114 small cell lung),TGI (DLD-1 colon)
CCCCc1c2c(nc3c1CCCC3O)/C(=C/c1ccccc1)CCC2 (stereo not drawn),> 100 µM,> 100 µM,> 100,89.5 µM,38.7 µM,57.1 µM,28.2 µM,74.7 µM,> 100 µM,> 100 µM,53.1 µM,,,,,,,,,
O=C1C(CN2CCCCC2)CCCC1CN1CCCCC1 (stereo not drawn),29.3 µM and 28.9 µM,47.6 µM and 44.8 µM,> 100,28.5 µM and 30.9 µM,> 65.6 µM and 12 µM,> 57.1 µM and 36.7 µM,33.4 µM and 39.8 µM,> 100 µM and 28.4 µM,18.4 µM and 5.93 µM,21 µM and 39.3 µM,18.7 µM and 79.4 µM,10.9 µM and 4.27 µM,13 µM and 5.2 µM,26.2 µM and 11.9 µM,> 43 µM and 19.8 µM,> 100 µM and 12.4 µM,7.52 µM and 2.89 µM,72.3,7.38 µM and 27.4 µM,31.5 µM and 32 µM
COc1cccc(NC(=S)Nn2c(C)nc3ccccc3c2=O)c1,> 100 µM,,> 100,> 100 µM,> 100 µM,> 100 µM,,> 100 µM,> 100 µM,> 100 µM,> 100 µM,,,> 100 µM,,,,,,> 100 µM
CCOC(=O)c1c(C)c2c(n1C)CCc1cn[nH]c1-2,,> 100 µM,> 100,> 100 µM,> 100 µM,> 100 µM,> 100 µM,,> 100 µM,> 100 µM,> 100 µM,,,> 100 µM,,,,,,> 100 µM
COC(OC)c1cccc2c1C(=O)CCC1(O)c3ccccc3C1C2 (stereo not drawn),> 100 µM,> 100 µM,> 100,> 100 µM,> 100 µM,> 100 µM,> 100 µM,> 100 µM,,> 100 µM,> 100 µM,,,,,,,,,> 100 µM
COc1ccc(C2C3C(=O)C=CC(=O)C3[C@@H]2C)cc1OC (stereo partly drawn),> 100 µM,> 100 µM,> 100,> 100 µM,91.9 µM,> 100 µM,> 100 µM,> 100 µM,> 100 µM,> 100 µM,> 100 µM,,,> 100 µM,,,,,,> 100 µM
CC1=C2C(=O)[C@H]3[C@@H](CC=C4C[C@@H](O)CC[C@@]43C)[C@@H]2CC[C@]12O[C@@H]1C[C@H](C)CN[C@H]1[C@H]2C,33.7 µM,39.8 µM,48.5,31.3 µM,> 100 µM,85.3 µM,,> 53.8 µM,26.6 µM,> 69.1 µM,41.5 µM,,,> 59.2 µM,,,,> 100,,97.1 µM
CCCC/C=C/C1Cc2ccccc2CN1S(=O)(=O)c1ccc(C)cc1 (stereo not drawn),22.1 µM,,29.6,> 100 µM,53.3 µM,18.8 µM,78.1 µM,61.3 µM,8.82 µM,28.6 µM,12.2 µM,,,,,,,,,32.9 µM
COc1cc(C2C(Cl)C(=O)N2NC(=O)c2ccccc2O)ccc1O (stereo not drawn),> 100 µM,> 100 µM,> 100,> 100 µM,> 100 µM,> 100 µM,> 100 µM,> 100 µM,,> 100 µM,> 100 µM,,,,,,,,,> 100 µM
CC(=O)O/N=C/c1ncccc1OC(C)=O,> 100 µM,,> 100,> 100 µM,> 100 µM,> 100 µM,> 100 µM,> 100 µM,> 100 µM,> 100 µM,> 100 µM,,,> 100 µM,,,,,,> 100 µM
CCCn1c(SCC)c2ccccc2c1-c1nc(F)nc(F)n1,> 100 µM,> 100 µM,> 100,,> 100 µM,> 100 µM,> 100 µM,> 100 µM,> 100 µM,,> 100 µM,,,> 100 µM,,,,,,
CCc1n[nH]c(=O)n1/N=C/c1ccccc1Cl,,,,,> 100 µM,,,> 100 µM,> 100 µM,> 100 µM,,,,> 100 µM,,,,10.2,,
C[C@H](Nc1c(O)c2c(c(O)c1Cl)C(=O)C=CC2=O)C(=O)Nc1ccc([N+](=O)[O-])cc1,,,,,> 10 µM,,,3.39 µM,5.16 µM,5.54 µM,,,,> 10 µM,,,,> 10,,
S=C(N/N=C(/c1ccccc1)c1ccccn1)Nc1ccccc1Cl,,,,,1.02 µM,,,12.6 µM,11 µM,4.98 µM,,,,11.5 µM,,,,24,,
COC(=O)C1=C(C(=O)OC)C2(OC(C)=O)c3ccccc3-c3ccccc3C12 (stereo not drawn),3.38 µM,10.8 µM,9.61,9.5 µM,,8.79 µM,26.1 µM,8.08 µM,3.67 µM,12.2 µM,9.89 µM,,,6.08 µM,,,,,,3.28 µM
O=C(CC(=O)N1N=C(N2CCCCC2)CC1c1ccccc1)Nc1ccc(Cl)cc1 (stereo not drawn),,,,,> 100 µM,,,> 100 µM,> 100 µM,> 100 µM,,,,> 100 µM,,,,> 100,,
O=c1[nH]c(Nc2cccc(C(F)(F)F)c2)nc2nc[nH]c12,,,,,> 100 µM,,,> 100 µM,> 100 µM,> 100 µM,,,,> 100 µM,,,,> 100,,
COC1=CC(=O)[C@H]2[C@H](C)C(c3ccccc3)[C@@]2(C)C1=O (stereo partly drawn),> 100 µM,> 100 µM,> 100,,> 100 µM,> 100 µM,> 100 µM,> 100 µM,> 100 µM,> 100 µM,,,,> 100 µM,,,,,,> 100 µM

SMILES,TGI (LXFL 529 NSCLC),TGI (SNB-78 CNS),TGI (DMS 273 small cell lung) [µM],TGI (HOP-18 NSCLC),TGI (MOLT-4 leukemia),TGI (M19-MEL melanoma),TGI (XF 498 CNS),TGI (TK-10 renal),TGI (HOP-92 NSCLC),TGI (OVCAR-8 ovarian),TGI (DMS 114 small cell lung),GI50 (MOLT-4 leukemia),GI50 (CAKI-1 renal),TGI (CAKI-1 renal),GI50 (M19-MEL melanoma),GI50 (TK-10 renal),GI50 (HOP-92 NSCLC),TGI (HS 578T breast) [µM],GI50 (DMS 114 small cell lung),TGI (DLD-1 colon)
N#Cc1c(-c2ccc([N+](=O)[O-])cc2)cc(-c2ccc(Nc3ccnc4cc(C(F)(F)F)ccc34)cc2)nc1N,,,,,14.5 µM,,,> 69.8 µM,42 µM,> 60.2 µM,,,,41.3 µM,,,,66.1,,
N#Cc1c(-c2ccco2)cc(-c2ccc(NCc3nc4ccccc4[nH]3)cc2)nc1N,42 µM,,38.5,77.9 µM,39.7 µM,63.4 µM,,86.2 µM,67.4 µM,46.3 µM,,,,> 100 µM,,,,,,> 100 µM
CC1=C2c3c(C)ccc4ccc(C)c(c34)C2(O)C(C)C1=O (stereo not drawn),,,,,> 100 µM,,,> 100 µM,> 100 µM,49.4 µM,,,,> 100 µM,,,,> 100,,
Clc1ccc(Oc2ccc(N=Cc3ccc(Cl)cc3Cl)cc2Cl)cc1,,,,,> 100 µM,,,> 100 µM,> 100 µM,> 100 µM,,,,> 100 µM,,,,71.1,,
O=C/C(=C(/Br)I)c1ccccc1,,,,,4.28 µM,,,20.2 µM,4.64 µM,10.6 µM,,,,4.15 µM,,,,> 60,,
CC(C)(C)c1ccc(-c2nc3ccc([N+](=O)[O-])cc3c(=O)o2)cc1,,,,,46.4 µM,,,> 100 µM,55.2 µM,83.9 µM,,,,> 100 µM,,,,80.8,,
CC(=O)C(=[N+]=[N-])C(=O)OC(C)(C)C#N,,,,,> 10 µM,,,> 10 µM,> 10 µM,> 10 µM,,,,> 10 µM,,,,> 10,,
Cc1ccc(S(=O)(=O)NN=C2CCCCCCCCCCC2)cc1,,,,,> 100 µM,,,> 100 µM,> 100 µM,> 100 µM,,,,> 100 µM,,,,> 100,,
O=C1NC(Cc2c[nH]c3ccccc23)C(=O)N2C(C3CCCCC3)c3[nH]c4ccccc4c3C[C@@H]12 (stereo partly drawn),,,,,34.6 µM,,,37.6 µM,46.2 µM,56.7 µM,,,,55.8 µM,,,,12.7,,
CCCCn1c(C)c(C(=O)OCC)s/c1=N/Nc1nc2ccccc2nc1-c1ccccc1,,,,,> 100 µM,,,> 100 µM,> 100 µM,> 100 µM,,,,> 100 µM,,,,60.3,,
CC1(C)CC[C@]2(C)CC=C3[C@]4(C)CC[C@H]5C(C)(C)C(=O)CC[C@]5(C)[C@H]4CC[C@@]3(C)[C@H]2C1,,,,,> 100 µM,,,> 100 µM,> 100 µM,> 100 µM,,,,> 100 µM,,,,> 100,,
COC(=O)C1(Cc2ccc3c(c2)CCC3)Cc2ccc3c(c2C1O)CCC3 (stereo not drawn),,,,,> 100 µM,,,54.8 µM,21.9 µM,39.1 µM,,,,29.4 µM,,,,42.1,,
CC1(c2nc3cc(Cl)c(Cl)cc3[nH]2)CCC(CO)C(C)(C)O1 (stereo not drawn),,,,,> 100 µM,,,> 100 µM,> 100 µM,61.4 µM,,,,> 100 µM,,,,53.9,,
COc1ccc(/C=C2\C[C@H]3[C@@H]4CCC5=C[C@@H](N6CCCC6)CC[C@]5(C)[C@H]4CC[C@]3(C)[C@H]2O)cc1,,,,,> 45.4 µM,,,7.44 µM,9.51 µM,16.4 µM,,,,14.6 µM,,,,8.66,,
CC1(C)C(=O)C(C)(C)C12SSC1(S2)C(C)(C)C(=O)C1(C)C,,,,,> 100 µM,,,> 100 µM,> 100 µM,> 100 µM,,,,> 100 µM,,,,> 100,,
C[C@]12CC[C@@H]3c4cc(OCC(F)(F)F)c(O)cc4C(=O)C[C@H]3[C@@H]1CC[C@@H]2O,,,,,> 100 µM,,,> 100 µM,> 100 µM,> 84.7 µM,,,,> 100 µM,,,,43.9,,
O=C(/C=C/c1ccc(Cl)cc1)Oc1ccc(/C=C2\CCCCC2=O)cc1,,,,,73.9 µM,,,> 100 µM,> 100 µM,> 100 µM,,,,> 100 µM,,,,> 100,,
